Publication PMC11956013, “Structure–Activity Relationships and Evaluation of 2-(Heteroaryl-cycloalkyl)-1H-indoles as Tauopathy Positron Emission Tomography Radiotracers” (Journal of Medicinal Chemistry, 2025)

Legend:
human 5-HT2B = target: T1, human 5-HT2B (Homo sapiens, UniProt P41595); experiment: Eurofins CNS SafetyScreen panel: 5-HT2B (vs ± DOI); type: binding
T1 construct: purchased Eurofins (contract screening, CNS SafetyScreen panel)

OX2 (h) = target: T2, OX2 (h) (Homo sapiens, UniProt O43614); experiment: Eurofins panel: OX2 (h) (agonist radioligand); settings: compound concentration 1.0E-05 M
T2 sequence (O43614 1-444): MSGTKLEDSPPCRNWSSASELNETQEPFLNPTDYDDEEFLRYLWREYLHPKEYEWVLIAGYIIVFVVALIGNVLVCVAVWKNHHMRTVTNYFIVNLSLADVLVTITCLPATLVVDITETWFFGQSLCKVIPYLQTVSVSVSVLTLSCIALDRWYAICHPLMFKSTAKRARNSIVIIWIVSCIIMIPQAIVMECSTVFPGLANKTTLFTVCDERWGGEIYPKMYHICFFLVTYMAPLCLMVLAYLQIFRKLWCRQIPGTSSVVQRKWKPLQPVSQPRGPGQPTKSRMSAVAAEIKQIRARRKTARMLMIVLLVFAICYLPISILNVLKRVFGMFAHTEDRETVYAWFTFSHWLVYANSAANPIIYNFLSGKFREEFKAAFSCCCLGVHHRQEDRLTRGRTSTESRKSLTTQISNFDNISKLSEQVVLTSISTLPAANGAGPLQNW

D2L (h) = D2L (h) (Homo sapiens, UniProt P14416); experiment: biochemical
dopamine transporter (h) = dopamine transporter (h) (Homo sapiens, UniProt Q01959); experiment: dopamine transporter (h) (antagonist radioligand), Eurofins assay 52
NK1 (h) = NK1 (h) (Homo sapiens, UniProt P25103); settings: compound concentration 1.0E-05 M
[1] = target: GABAA (alpha1/beta2/gamma2) Human Ion Channel, Picrotoxinin site (Homo sapiens, UniProt P14867+P18507+P47870); experiment: biochemical; type: binding
p38alpha kinase (h) = p38alpha kinase (h) (Homo sapiens, UniProt Q16539); settings: compound concentration 1.0E-05 M
5-HT1B (h) = 5-HT1B (h) (Homo sapiens, UniProt P28222); experiment: Eurofins panel: 5-HT1B (h) (antagonist radioligand); settings: 1.0E-05 M
ATPase (Na+/K+) = experiment: Eurofins panel: ATPase (Na+/K+) enzymatic activity; type: biochemical; settings: 1.0E-05 M
[2] = target: GABAA1 (h) (alpha1,beta2,gamma2) (Homo sapiens, UniProt P14867+P47870); experiment: GABAA1 (h) (alpha1,beta2,gamma2) (agonist radioligand), Eurofins assay 3051
CGRP (h) = CGRP (h) (Homo sapiens, UniProt O60894+Q16602); experiment: biochemical
alpha2B (h) = alpha2B (h) (Homo sapiens, UniProt P18089)
5-HT4e (h) = 5-HT4e (h) (Homo sapiens, UniProt Q13639); experiment: Eurofins panel: 5-HT4e (h) (antagonist radioligand); settings: 1.0E-05 M; 5-HT4e (h) (antagonist radioligand)
[3] = target: T3, Glutamate (Non-Selective) Rat Ion Channel Glycine (Strychnine-Insensitive) (Rattus norvegicus, UniProt P35439); experiment: Glutamate (Non-Selective) Rat Ion Channel Glycine (Strychnine-Insensitive), Mass Spectrometry Binding, assay 5043
T3 construct: Eurofins assay 5043

mGluR5 (h) = mGluR5 (h) (Homo sapiens, UniProt P41594); experiment: Eurofins panel: mGluR5 (h) (agonist radioligand); settings: 1.0E-05 M; mGluR5 (h) (agonist radioligand)
B2 (h) = B2 (h) (Homo sapiens, UniProt P30411); settings: 1.0E-05 M; B2 (h) (agonist radioligand)
98 CNS protein targets = experiment: Eurofins CNS SafetyScreen panel at 10 μM; type: binding; settings: 10-μM concentration
[4] = tested on: sigma (non-selective) (h); settings: compound concentration 1.0E-05 M
A3 (h) = A3 (h) (Homo sapiens, UniProt P0DMS8); settings: 1.0E-05 M; A3 (h) (agonist radioligand)
SKCa channel = settings: compound concentration 1.0E-05 M
[5] = target: MAO-A, human, monoamine oxydase A (Homo sapiens, UniProt P21397); experiment: MAO-A, human, monoamine oxydase A, MAO, Enzymatic Assay, Cerep, assay 5108
Oxytocin (h) = Oxytocin (h) (Homo sapiens, UniProt P30559); settings: compound concentration 1.0E-05 M
M4 (h) = M4 (h) (Homo sapiens, UniProt P08173); experiment: M4 (h) (antagonist radioligand), Eurofins assay 96
PCP = experiment: Eurofins panel: PCP (antagonist radioligand); type: binding; settings: compound concentration 1.0E-05 M
[6] = target: carbonic anhydrase II (h) (Homo sapiens, UniProt P00918); settings: 1.0E-05 M
JNK1 (h) = JNK1 (h) (Homo sapiens, UniProt P45983); settings: Enzymatic activity; 1.0E-05 M
alpha2A (h) = alpha2A (h) (Homo sapiens, UniProt P08913); settings: 1.0E-05 M; alpha2A (h) (antagonist radioligand)
OX1 (h) = OX1 (h) (Homo sapiens, UniProt O43613); settings: compound concentration 1.0E-05 M
H3 (h) = H3 (h) (Homo sapiens, UniProt Q9Y5N1); experiment: biochemical
A2B (h) = A2B (h) (Homo sapiens, UniProt P29275); experiment: Eurofins panel: A2B (h) (antagonist radioligand); settings: 1.0E-05 M
Sequence of A2B (h) (P29275 whole entry): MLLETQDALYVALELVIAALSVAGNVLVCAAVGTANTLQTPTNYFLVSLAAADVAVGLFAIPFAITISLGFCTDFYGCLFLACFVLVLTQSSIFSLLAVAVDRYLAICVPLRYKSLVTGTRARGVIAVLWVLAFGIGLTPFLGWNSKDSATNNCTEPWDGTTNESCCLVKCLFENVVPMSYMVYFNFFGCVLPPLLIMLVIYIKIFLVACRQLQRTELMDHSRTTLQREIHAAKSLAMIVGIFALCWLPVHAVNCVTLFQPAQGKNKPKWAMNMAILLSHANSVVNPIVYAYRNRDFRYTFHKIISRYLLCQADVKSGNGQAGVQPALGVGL

T1 sequence (P41595 whole entry): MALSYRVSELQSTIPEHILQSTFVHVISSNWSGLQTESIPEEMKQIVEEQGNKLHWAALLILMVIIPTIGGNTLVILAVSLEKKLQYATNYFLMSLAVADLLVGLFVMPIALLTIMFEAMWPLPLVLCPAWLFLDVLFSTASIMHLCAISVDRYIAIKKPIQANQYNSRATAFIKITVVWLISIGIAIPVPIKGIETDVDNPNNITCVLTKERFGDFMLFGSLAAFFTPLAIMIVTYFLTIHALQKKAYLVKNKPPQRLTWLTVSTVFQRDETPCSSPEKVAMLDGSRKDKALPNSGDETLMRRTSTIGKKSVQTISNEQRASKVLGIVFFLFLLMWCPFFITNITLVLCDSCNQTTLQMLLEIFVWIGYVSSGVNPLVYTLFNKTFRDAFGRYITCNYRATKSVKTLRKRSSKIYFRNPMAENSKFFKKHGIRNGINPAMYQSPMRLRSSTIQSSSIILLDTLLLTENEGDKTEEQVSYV
Sequence of MAO-A, human, monoamine oxydase A (P21397 whole entry): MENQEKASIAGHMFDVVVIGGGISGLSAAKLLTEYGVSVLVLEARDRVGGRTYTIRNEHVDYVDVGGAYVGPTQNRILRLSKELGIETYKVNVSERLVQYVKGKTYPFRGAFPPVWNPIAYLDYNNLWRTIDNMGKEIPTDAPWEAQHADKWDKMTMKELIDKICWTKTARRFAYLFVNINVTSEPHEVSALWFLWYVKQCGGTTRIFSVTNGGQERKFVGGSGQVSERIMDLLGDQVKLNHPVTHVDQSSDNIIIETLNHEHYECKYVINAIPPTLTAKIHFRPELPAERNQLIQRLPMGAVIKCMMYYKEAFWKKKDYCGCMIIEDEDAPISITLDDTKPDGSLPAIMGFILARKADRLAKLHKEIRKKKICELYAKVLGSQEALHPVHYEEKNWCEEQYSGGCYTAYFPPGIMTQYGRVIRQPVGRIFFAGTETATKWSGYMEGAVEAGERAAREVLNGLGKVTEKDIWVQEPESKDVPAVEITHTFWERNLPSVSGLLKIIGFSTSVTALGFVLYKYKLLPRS
Sequence of M4 (h) (P08173 whole entry): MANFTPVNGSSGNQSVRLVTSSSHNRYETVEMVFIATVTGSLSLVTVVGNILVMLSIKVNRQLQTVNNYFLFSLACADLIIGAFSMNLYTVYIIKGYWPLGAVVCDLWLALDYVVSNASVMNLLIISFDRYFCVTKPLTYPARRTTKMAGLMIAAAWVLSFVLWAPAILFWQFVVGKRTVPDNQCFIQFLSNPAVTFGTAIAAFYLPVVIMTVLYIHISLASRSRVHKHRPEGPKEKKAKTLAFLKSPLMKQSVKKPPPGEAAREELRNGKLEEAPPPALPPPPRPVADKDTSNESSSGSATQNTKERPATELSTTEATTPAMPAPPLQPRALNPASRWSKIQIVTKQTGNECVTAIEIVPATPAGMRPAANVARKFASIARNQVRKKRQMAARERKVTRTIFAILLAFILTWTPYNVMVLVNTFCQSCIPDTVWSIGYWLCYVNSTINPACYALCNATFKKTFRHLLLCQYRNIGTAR
Sequence of 5-HT1B (h) (P28222 whole entry): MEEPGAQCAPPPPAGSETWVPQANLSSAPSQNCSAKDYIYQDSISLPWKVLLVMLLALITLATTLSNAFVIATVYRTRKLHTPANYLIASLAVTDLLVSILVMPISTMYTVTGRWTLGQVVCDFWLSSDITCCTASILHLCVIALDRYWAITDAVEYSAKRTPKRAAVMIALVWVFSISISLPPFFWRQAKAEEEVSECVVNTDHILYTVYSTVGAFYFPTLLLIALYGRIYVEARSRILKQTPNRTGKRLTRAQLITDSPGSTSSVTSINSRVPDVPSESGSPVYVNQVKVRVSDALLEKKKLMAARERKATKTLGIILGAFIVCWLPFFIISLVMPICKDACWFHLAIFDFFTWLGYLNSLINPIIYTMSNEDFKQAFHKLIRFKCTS
Sequence of A3 (h) (P0DMS8 whole entry): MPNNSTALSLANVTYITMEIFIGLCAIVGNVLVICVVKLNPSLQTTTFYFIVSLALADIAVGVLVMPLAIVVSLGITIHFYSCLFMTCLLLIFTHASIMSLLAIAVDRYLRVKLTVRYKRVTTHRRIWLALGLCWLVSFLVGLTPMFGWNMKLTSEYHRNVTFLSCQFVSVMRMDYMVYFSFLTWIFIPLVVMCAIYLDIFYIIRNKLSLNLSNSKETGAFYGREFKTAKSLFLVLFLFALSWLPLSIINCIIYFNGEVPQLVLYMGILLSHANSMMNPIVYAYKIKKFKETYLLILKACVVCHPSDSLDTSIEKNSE
Sequence of JNK1 (h) (P45983 whole entry): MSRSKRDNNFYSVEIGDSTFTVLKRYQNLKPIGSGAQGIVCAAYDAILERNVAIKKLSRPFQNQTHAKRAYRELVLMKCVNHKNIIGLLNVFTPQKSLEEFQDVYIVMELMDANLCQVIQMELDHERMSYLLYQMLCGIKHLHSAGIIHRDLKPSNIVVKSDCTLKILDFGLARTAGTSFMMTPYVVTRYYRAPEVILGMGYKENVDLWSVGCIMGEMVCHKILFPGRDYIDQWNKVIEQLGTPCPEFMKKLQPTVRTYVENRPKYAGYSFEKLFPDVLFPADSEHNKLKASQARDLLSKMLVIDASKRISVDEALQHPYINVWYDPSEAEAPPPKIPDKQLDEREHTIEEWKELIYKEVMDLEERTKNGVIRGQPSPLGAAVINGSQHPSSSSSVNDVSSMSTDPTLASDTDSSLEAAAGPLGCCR
Sequence of D2L (h) (P14416 whole entry): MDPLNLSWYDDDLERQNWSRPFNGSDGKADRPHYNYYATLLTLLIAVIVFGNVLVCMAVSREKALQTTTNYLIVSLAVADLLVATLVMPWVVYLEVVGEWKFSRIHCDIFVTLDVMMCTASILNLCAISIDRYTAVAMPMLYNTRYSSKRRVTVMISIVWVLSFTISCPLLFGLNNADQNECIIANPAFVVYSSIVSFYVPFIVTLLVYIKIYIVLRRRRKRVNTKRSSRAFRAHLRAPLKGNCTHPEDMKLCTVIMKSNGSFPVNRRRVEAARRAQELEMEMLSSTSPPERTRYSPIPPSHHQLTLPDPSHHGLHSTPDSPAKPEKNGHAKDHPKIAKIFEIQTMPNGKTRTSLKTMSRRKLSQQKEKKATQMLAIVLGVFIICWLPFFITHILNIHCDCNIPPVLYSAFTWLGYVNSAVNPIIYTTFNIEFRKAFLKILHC
Sequence of p38alpha kinase (h) (Q16539 whole entry): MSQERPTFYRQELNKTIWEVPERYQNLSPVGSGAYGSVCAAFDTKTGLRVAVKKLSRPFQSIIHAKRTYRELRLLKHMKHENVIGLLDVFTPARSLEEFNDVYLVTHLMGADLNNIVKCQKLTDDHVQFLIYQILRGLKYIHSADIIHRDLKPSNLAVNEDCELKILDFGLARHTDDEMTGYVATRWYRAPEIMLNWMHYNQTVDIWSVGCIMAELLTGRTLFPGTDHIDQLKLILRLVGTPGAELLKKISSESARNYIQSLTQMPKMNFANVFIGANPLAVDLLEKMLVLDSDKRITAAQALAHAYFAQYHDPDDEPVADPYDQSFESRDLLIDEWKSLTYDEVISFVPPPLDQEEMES
Sequence of 5-HT4e (h) (Q13639 1-378 isoform Q13639-5): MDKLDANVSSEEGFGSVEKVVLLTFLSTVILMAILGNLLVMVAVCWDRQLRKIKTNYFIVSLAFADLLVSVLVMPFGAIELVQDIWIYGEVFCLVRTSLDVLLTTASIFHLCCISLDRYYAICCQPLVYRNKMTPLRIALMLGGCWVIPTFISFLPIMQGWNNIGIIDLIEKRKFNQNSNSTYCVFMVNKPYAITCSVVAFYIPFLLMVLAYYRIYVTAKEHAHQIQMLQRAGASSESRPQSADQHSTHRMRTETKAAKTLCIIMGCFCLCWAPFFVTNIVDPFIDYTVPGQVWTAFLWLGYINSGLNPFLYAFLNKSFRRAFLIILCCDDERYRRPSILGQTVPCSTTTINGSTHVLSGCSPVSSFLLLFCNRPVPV
Sequence of NK1 (h) (P25103 whole entry): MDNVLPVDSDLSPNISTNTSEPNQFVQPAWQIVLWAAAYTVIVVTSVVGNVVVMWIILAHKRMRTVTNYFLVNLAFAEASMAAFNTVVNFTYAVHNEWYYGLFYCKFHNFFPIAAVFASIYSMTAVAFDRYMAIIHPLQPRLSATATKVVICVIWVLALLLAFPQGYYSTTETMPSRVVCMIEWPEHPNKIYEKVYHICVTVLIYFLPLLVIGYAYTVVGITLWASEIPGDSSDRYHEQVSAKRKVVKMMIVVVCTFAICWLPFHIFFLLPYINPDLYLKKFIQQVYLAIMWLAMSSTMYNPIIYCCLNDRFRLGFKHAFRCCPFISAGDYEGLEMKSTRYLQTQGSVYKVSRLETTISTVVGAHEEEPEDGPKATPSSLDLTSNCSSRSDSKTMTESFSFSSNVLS
Sequence of B2 (h) (P30411 whole entry): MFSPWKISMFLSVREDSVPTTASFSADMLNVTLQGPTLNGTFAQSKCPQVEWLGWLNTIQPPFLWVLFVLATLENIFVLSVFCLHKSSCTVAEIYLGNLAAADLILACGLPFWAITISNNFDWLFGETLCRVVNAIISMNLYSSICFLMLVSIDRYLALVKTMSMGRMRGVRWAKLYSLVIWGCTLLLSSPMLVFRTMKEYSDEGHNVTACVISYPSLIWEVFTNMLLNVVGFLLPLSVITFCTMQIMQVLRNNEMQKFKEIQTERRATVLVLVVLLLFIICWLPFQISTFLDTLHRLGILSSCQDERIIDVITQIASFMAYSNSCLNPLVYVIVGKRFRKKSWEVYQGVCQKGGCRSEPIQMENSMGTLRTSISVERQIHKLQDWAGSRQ

SMILES: Fc1nc(N2CCOCC2)ccc1-c1cc2ccccc2[nH]1 [Compound 75, 4-(6-Fluoro-5-(1H-indol-2-yl)pyridin-2-yl)morpholine]
- % Inhibition, Specific binding (human 5-HT2B; 1.0E-05 M, 5-HT2B (h) (agonist radioligand)): 44.5993%
- inhibition at human 5-HT2B (vs ± DOI) (human 5-HT2B; 10-μM concentration): 44.6%
- % Inhibition, Specific binding (OX2 (h)): 0.786%
- inhibition at 10 µM (D2L (h)): -1.3%
- inhibition at 10 µM (dopamine transporter (h)): 17.2%
- % Inhibition, Specific binding (NK1 (h)): 21.8946%
- inhibition at 10 µM [1]: 8.53%
- % Inhibition, Enzymatic activity (p38alpha kinase (h)): 10.339%
- % Inhibition, Specific binding (5-HT1B (h)): -1.91E+01%
- % Inhibition, Enzymatic activity (ATPase (Na+/K+)): -2.26E+00%
- inhibition at 10 µM [2]: 7.7%
- inhibition at 10 µM (CGRP (h)): -5.83%
- % Inhibition, Specific binding (alpha2B (h)): 2.179%
- % Inhibition, Specific binding (5-HT4e (h)): 10.412%
- inhibition at 10 µM [3]: 3.36%
- % Inhibition, Specific binding (mGluR5 (h)): -1.20E+01%
- % Inhibition, Specific binding (B2 (h)): -1.15E+01%
- inhibition at 96 of 98 CNS targets (98 CNS protein targets): ≤ 25.3%
- % Inhibition, Specific binding [4]: -4.77E+00%
- % Inhibition, Specific binding (A3 (h)): 5.821%
- % Inhibition, Specific binding (SKCa channel): 0.9001%
- inhibition at 10 µM [5]: 3.62%
- % Inhibition, Specific binding (Oxytocin (h)): 25.3038%
- inhibition at 10 µM (M4 (h)): -20.6%
- % Inhibition, Specific binding (PCP): -3.84E+00%
- % Inhibition, Enzymatic activity [6]: -2.68E+01%
- % Inhibition (JNK1 (h)): -3.56E-01%
- % Inhibition, Specific binding (alpha2A (h)): -8.25E+00%
- % Inhibition, Specific binding (OX1 (h)): 6.092%
- inhibition at 10 µM (H3 (h)): -4.9%
- % Inhibition, Specific binding (A2B (h)): -1.19E+01%
